Experimental data as given in patent US10550111B2, “Pyrimidine urea compound containing isoxazolines and use thereof” (SHENYANG SINOCHEM AGROCHEMICALS R&D CO., LTD, priority 2014, dated 2020).

How the values were obtained:
Format in all cases: in vivo
[1] = system: Echinochloa crus-galli (L.) Beauv.; experiment: Bioassay of herbicidal activity in greenhouse (further screening)
Method in brief: (§1)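 Pre- and post-emergence greenhouse test. Track sprayer, 500 L/hm^2, 1.95 kg/cm^2; EC formulation. Post-em at 2–3 leaves (grass), 2–4 leaves (broad-leaf). Readout: visual % inhibition.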

[2] = system: Setaria glauca (L.) Beauv.; experiment: as above
Method in brief: as §1

[3] = system: Abutilon theophrasti Medic.; experiment: as above
Method in brief: as §1

Zinnia elegans Jacq. = experiment: as above
Method in brief: as §1

[4] = system: broad-leaf weeds and grass weeds; experiment: General screening of herbicidal activity in greenhouse; conditions: 1000 g a.i./hm^2;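 further: 0 means no visible effect and 100 means all weeds dead or not emerged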
Method in brief: as §1

With `Cn1c(C(F)(F)F)cc(=O)n(-c2cc(C3=NOC(C)(C(=O)O)C3)c(Cl)cc2F)c1=O` (stereo not drawn) [Compound 4] the “Growth inhibition rate, Post-emergence treatment, Echinochloa crus-galli (L.) Beauv.” value ([1]; dose 37.5 g a.i./hm^2) was 15%, the “Growth inhibition rate, Post-emergence treatment, Echinochloa crus-galli (L.) Beauv.” value ([1]; dose 150 g a.i./hm^2) was 25% and the “Growth inhibition rate, Post-emergence treatment, Echinochloa crus-galli (L.) Beauv.” value ([1]; dose 600 g a.i./hm^2) was 85%. The “Growth inhibition rate, Pre-emergence treatment, Echinochloa crus-galli (L.) Beauv.” value ([1]; dose 37.5 g a.i./hm^2) was 0%, the “Growth inhibition rate, Pre-emergence treatment, Echinochloa crus-galli (L.) Beauv.” value ([1]; dose 150 g a.i./hm^2) was 0% and the “Growth inhibition rate, Pre-emergence treatment, Echinochloa crus-galli (L.) Beauv.” value ([1]; dose 600 g a.i./hm^2) was 10%. The “Growth inhibition rate, Post-emergence treatment, Setaria glauca (L.) Beauv.” value ([2]; dose 37.5 g a.i./hm^2) was 20%, the “Growth inhibition rate, Post-emergence treatment, Setaria glauca (L.) Beauv.” value ([2]; dose 150 g a.i./hm^2) was 70% and the “Growth inhibition rate, Post-emergence treatment, Setaria glauca (L.) Beauv.” value ([2]; dose 600 g a.i./hm^2) was 100%. For the same molecule, the “Growth inhibition rate, Pre-emergence treatment, Setaria glauca (L.) Beauv.” value ([2]; dose 37.5 g a.i./hm^2) was 0%, the “Growth inhibition rate, Pre-emergence treatment, Setaria glauca (L.) Beauv.” value ([2]; dose 150 g a.i./hm^2) was 5% and the “Growth inhibition rate, Pre-emergence treatment, Setaria glauca (L.) Beauv.” value ([2]; dose 600 g a.i./hm^2) was 30%. For the same molecule, the “Growth inhibition rate, Post-emergence treatment, Abutilon theophrasti Medic.” value ([3]; dose 37.5 g a.i./hm^2) was 50%, the “Growth inhibition rate, Post-emergence treatment, Abutilon theophrasti Medic.” value ([3]; dose 150 g a.i./hm^2) was 98% and the “Growth inhibition rate, Post-emergence treatment, Abutilon theophrasti Medic.” value ([3]; dose 600 g a.i./hm^2) was 98%. For the same molecule, the “Growth inhibition rate, Pre-emergence treatment, Abutilon theophrasti Medic.” value ([3]; dose 37.5 g a.i./hm^2) was 10%, the “Growth inhibition rate, Pre-emergence treatment, Abutilon theophrasti Medic.” value ([3]; dose 150 g a.i./hm^2) was 15% and the “Growth inhibition rate, Pre-emergence treatment, Abutilon theophrasti Medic.” value ([3]; dose 600 g a.i./hm^2) was 40%. For the same molecule, the “Growth inhibition rate, Post-emergence treatment, Zinnia elegans Jacq.” value (Zinnia elegans Jacq.; dose 37.5 g a.i./hm^2) was 95%, the “Growth inhibition rate, Post-emergence treatment, Zinnia elegans Jacq.” value (Zinnia elegans Jacq.; dose 150 g a.i./hm^2) was 100% and the “Growth inhibition rate, Post-emergence treatment, Zinnia elegans Jacq.” value (Zinnia elegans Jacq.; dose 600 g a.i./hm^2) was 100%. For the same molecule, the “Growth inhibition rate, Pre-emergence treatment, Zinnia elegans Jacq.” value (Zinnia elegans Jacq.; dose 37.5 g a.i./hm^2) was 0%, the “Growth inhibition rate, Pre-emergence treatment, Zinnia elegans Jacq.” value (Zinnia elegans Jacq.; dose 150 g a.i./hm^2) was 5% and the “Growth inhibition rate, Pre-emergence treatment, Zinnia elegans Jacq.” value (Zinnia elegans Jacq.; dose 600 g a.i./hm^2) was 20%. For the same molecule, the “pre-emergence and post-emergence herbicidal activity against broad-leaf weeds and grass weeds” value [4] was “good”.

`CCCCOC(=O)C1(C)CC(c2cc(-n3c(=O)cc(C(F)(F)F)n(C)c3=O)c(F)cc2Cl)=NO1` (stereo not drawn) [Compound 8] was tested, and the “Growth inhibition rate, Post-emergence treatment, Echinochloa crus-galli (L.) Beauv.” value ([1]; dose 7.5 g a.i./hm^2) was 70%, the “Growth inhibition rate, Post-emergence treatment, Echinochloa crus-galli (L.) Beauv.” value ([1]; dose 15 g a.i./hm^2) was 95% and the “Growth inhibition rate, Post-emergence treatment, Echinochloa crus-galli (L.) Beauv.” value ([1]; dose 30.0 g a.i./hm^2) was 100%. The “Growth inhibition rate, Post-emergence treatment, Echinochloa crus-galli (L.) Beauv.” value ([1]; dose 60.0 g a.i./hm^2) was 100%, the “Growth inhibition rate, Post-emergence treatment, Echinochloa crus-galli (L.) Beauv.” value ([1]; dose 120.0 g a.i./hm^2) was 100% and the “Growth inhibition rate, Post-emergence treatment, Setaria glauca (L.) Beauv.” value ([2]; dose 7.5 g a.i./hm^2) was 60%. The “Growth inhibition rate, Post-emergence treatment, Setaria glauca (L.) Beauv.” value ([2]; dose 15 g a.i./hm^2) was 80%, the “Growth inhibition rate, Post-emergence treatment, Setaria glauca (L.) Beauv.” value ([2]; dose 30.0 g a.i./hm^2) was 100% and the “Growth inhibition rate, Post-emergence treatment, Setaria glauca (L.) Beauv.” value ([2]; dose 60.0 g a.i./hm^2) was 100%. The “Growth inhibition rate, Post-emergence treatment, Setaria glauca (L.) Beauv.” value ([2]; dose 120.0 g a.i./hm^2) was 100%, the “Growth inhibition rate, Post-emergence treatment, Abutilon theophrasti Medic.” value ([3]; dose 7.5 g a.i./hm^2) was 100% and the “Growth inhibition rate, Post-emergence treatment, Abutilon theophrasti Medic.” value ([3]; dose 15 g a.i./hm^2) was 100%. The “Growth inhibition rate, Post-emergence treatment, Abutilon theophrasti Medic.” value ([3]; dose 30.0 g a.i./hm^2) was 100%, the “Growth inhibition rate, Post-emergence treatment, Abutilon theophrasti Medic.” value ([3]; dose 60.0 g a.i./hm^2) was 100% and the “Growth inhibition rate, Post-emergence treatment, Abutilon theophrasti Medic.” value ([3]; dose 120.0 g a.i./hm^2) was 100%. The “Growth inhibition rate, Post-emergence treatment, Zinnia elegans Jacq.” value (Zinnia elegans Jacq.; dose 7.5 g a.i./hm^2) was 90%, the “Growth inhibition rate, Post-emergence treatment, Zinnia elegans Jacq.” value (Zinnia elegans Jacq.; dose 15 g a.i./hm^2) was 95% and the “Growth inhibition rate, Post-emergence treatment, Zinnia elegans Jacq.” value (Zinnia elegans Jacq.; dose 30.0 g a.i./hm^2) was 95%. The “Growth inhibition rate, Post-emergence treatment, Zinnia elegans Jacq.” value (Zinnia elegans Jacq.; dose 60.0 g a.i./hm^2) was 100%, the “Growth inhibition rate, Post-emergence treatment, Zinnia elegans Jacq.” value (Zinnia elegans Jacq.; dose 120.0 g a.i./hm^2) was 100% and the “pre-emergence and post-emergence herbicidal activity against broad-leaf weeds and grass weeds” value [4] was “good”.

For `Cn1c(C(F)(F)F)cc(=O)n(-c2cc(C3=NOC(C)(COS(C)(=O)=O)C3)c(Cl)cc2F)c1=O` (stereo not drawn) [Compound 88], the “Growth inhibition rate, Post-emergence treatment, Echinochloa crus-galli (L.) Beauv.” value ([1]; dose 7.5 g a.i./hm^2) was 15%, the “Growth inhibition rate, Post-emergence treatment, Echinochloa crus-galli (L.) Beauv.” value ([1]; dose 15 g a.i./hm^2) was 20% and the “Growth inhibition rate, Post-emergence treatment, Echinochloa crus-galli (L.) Beauv.” value ([1]; dose 37.5 g a.i./hm^2) was 25%. The “Growth inhibition rate, Post-emergence treatment, Echinochloa crus-galli (L.) Beauv.” value ([1]; dose 150 g a.i./hm^2) was 60%, the “Growth inhibition rate, Post-emergence treatment, Echinochloa crus-galli (L.) Beauv.” value ([1]; dose 600 g a.i./hm^2) was 95% and the “Growth inhibition rate, Pre-emergence treatment, Echinochloa crus-galli (L.) Beauv.” value ([1]; dose 7.5 g a.i./hm^2) was 5%. The “Growth inhibition rate, Pre-emergence treatment, Echinochloa crus-galli (L.) Beauv.” value ([1]; dose 15 g a.i./hm^2) was 10%, the “Growth inhibition rate, Pre-emergence treatment, Echinochloa crus-galli (L.) Beauv.” value ([1]; dose 37.5 g a.i./hm^2) was 15% and the “Growth inhibition rate, Pre-emergence treatment, Echinochloa crus-galli (L.) Beauv.” value ([1]; dose 150 g a.i./hm^2) was 80%. For the same molecule, the “Growth inhibition rate, Pre-emergence treatment, Echinochloa crus-galli (L.) Beauv.” value ([1]; dose 600 g a.i./hm^2) was 100%, the “Growth inhibition rate, Post-emergence treatment, Setaria glauca (L.) Beauv.” value ([2]; dose 7.5 g a.i./hm^2) was 25% and the “Growth inhibition rate, Post-emergence treatment, Setaria glauca (L.) Beauv.” value ([2]; dose 15 g a.i./hm^2) was 30%. The “Growth inhibition rate, Post-emergence treatment, Setaria glauca (L.) Beauv.” value ([2]; dose 37.5 g a.i./hm^2) was 45%, the “Growth inhibition rate, Post-emergence treatment, Setaria glauca (L.) Beauv.” value ([2]; dose 150 g a.i./hm^2) was 70% and the “Growth inhibition rate, Post-emergence treatment, Setaria glauca (L.) Beauv.” value ([2]; dose 600 g a.i./hm^2) was 98%. For the same molecule, the “Growth inhibition rate, Pre-emergence treatment, Setaria glauca (L.) Beauv.” value ([2]; dose 7.5 g a.i./hm^2) was 65%, the “Growth inhibition rate, Pre-emergence treatment, Setaria glauca (L.) Beauv.” value ([2]; dose 15 g a.i./hm^2) was 80% and the “Growth inhibition rate, Pre-emergence treatment, Setaria glauca (L.) Beauv.” value ([2]; dose 37.5 g a.i./hm^2) was 30%. For the same molecule, the “Growth inhibition rate, Pre-emergence treatment, Setaria glauca (L.) Beauv.” value ([2]; dose 150 g a.i./hm^2) was 85%, the “Growth inhibition rate, Pre-emergence treatment, Setaria glauca (L.) Beauv.” value ([2]; dose 600 g a.i./hm^2) was 100% and the “Growth inhibition rate, Post-emergence treatment, Abutilon theophrasti Medic.” value ([3]; dose 7.5 g a.i./hm^2) was 98%. For the same molecule, the “Growth inhibition rate, Post-emergence treatment, Abutilon theophrasti Medic.” value ([3]; dose 15 g a.i./hm^2) was 100%, the “Growth inhibition rate, Post-emergence treatment, Abutilon theophrasti Medic.” value ([3]; dose 37.5 g a.i./hm^2) was 98% and the “Growth inhibition rate, Post-emergence treatment, Abutilon theophrasti Medic.” value ([3]; dose 150 g a.i./hm^2) was 100%. For the same molecule, the “Growth inhibition rate, Post-emergence treatment, Abutilon theophrasti Medic.” value ([3]; dose 600 g a.i./hm^2) was 100%, the “Growth inhibition rate, Pre-emergence treatment, Abutilon theophrasti Medic.” value ([3]; dose 7.5 g a.i./hm^2) was 98% and the “Growth inhibition rate, Pre-emergence treatment, Abutilon theophrasti Medic.” value ([3]; dose 15 g a.i./hm^2) was 100%. The “Growth inhibition rate, Pre-emergence treatment, Abutilon theophrasti Medic.” value ([3]; dose 37.5 g a.i./hm^2) was 85%, the “Growth inhibition rate, Pre-emergence treatment, Abutilon theophrasti Medic.” value ([3]; dose 150 g a.i./hm^2) was 100% and the “Growth inhibition rate, Pre-emergence treatment, Abutilon theophrasti Medic.” value ([3]; dose 600 g a.i./hm^2) was 100%. For the same molecule, the “Growth inhibition rate, Post-emergence treatment, Zinnia elegans Jacq.” value (Zinnia elegans Jacq.; dose 7.5 g a.i./hm^2) was 98%, the “Growth inhibition rate, Post-emergence treatment, Zinnia elegans Jacq.” value (Zinnia elegans Jacq.; dose 15 g a.i./hm^2) was 100% and the “Growth inhibition rate, Post-emergence treatment, Zinnia elegans Jacq.” value (Zinnia elegans Jacq.; dose 37.5 g a.i./hm^2) was 100%. The “Growth inhibition rate, Post-emergence treatment, Zinnia elegans Jacq.” value (Zinnia elegans Jacq.; dose 150 g a.i./hm^2) was 100%, the “Growth inhibition rate, Post-emergence treatment, Zinnia elegans Jacq.” value (Zinnia elegans Jacq.; dose 600 g a.i./hm^2) was 100% and the “Growth inhibition rate, Pre-emergence treatment, Zinnia elegans Jacq.” value (Zinnia elegans Jacq.; dose 7.5 g a.i./hm^2) was 20%. For the same molecule, the “Growth inhibition rate, Pre-emergence treatment, Zinnia elegans Jacq.” value (Zinnia elegans Jacq.; dose 15 g a.i./hm^2) was 30%, the “Growth inhibition rate, Pre-emergence treatment, Zinnia elegans Jacq.” value (Zinnia elegans Jacq.; dose 37.5 g a.i./hm^2) was 45% and the “Growth inhibition rate, Pre-emergence treatment, Zinnia elegans Jacq.” value (Zinnia elegans Jacq.; dose 150 g a.i./hm^2) was 100%. The “Growth inhibition rate, Pre-emergence treatment, Zinnia elegans Jacq.” value (Zinnia elegans Jacq.; dose 600 g a.i./hm^2) was 100% and the “pre-emergence and post-emergence herbicidal activity against broad-leaf weeds and grass weeds” value [4] was “good”.
